For 24 molecules, inhibition and pest or weed control results are on record in US20260258038A1 (priority 2023, published 2026).

One test concerns Pythium ultimum. Kind of test: Pythium ultimum / liquid culture (seedling damping off). The format is cell-based. As to conditions: Globisporangium ultimum, liquid culture in PDB, 24° C., 2-3 days after application, read-out: control of Pythium ultimum (inhibition of growth, photometric). How it is done: Pythium ultimum/Liquid Culture (Seedling Damping Off)
Mycelia fragments and oospores of a newly grown liquid culture of the fungus are directly mixed into nutrient broth (PDB potato dextrose broth). After placing a (DMSO) solution of test compound into a microtiter plate (96-well format), the nutrient broth containing the fungal mycelia/spore mixture is added. The test plates are incubated at 24° C. and the inhibition of growth is determined photometrically 2-3 days after application.

The subject of the next test is Phytophthora infestans. The test is described as follows: whole plant or invertebrate. The format is in vivo. The conditions noted are these: in Solanum lycopersicum, foliar, read-out: control of Phytophthora infestans (percent disease control compared to untreated).
In a further test the test system is Plasmopara viticola. The test is described as follows: whole plant or invertebrate. It counts as in vivo. The conditions noted are these: foliar, read-out: control of Plasmopara viticola (percent disease control compared to untreated).

As a reminder, the inhibition is the relative decrease from the control value, in per cent. Regarding `COC(=O)Nc1ccc(-c2cnc3c(C)cc(N(C)C(=O)c4cccc(OC)c4)cn23)cn1` [Compound 53, methyl N-[5-[6-[(3-methoxybenzoyl)-methyl-amino]-8-methyl-imidazo[1,2-a]pyridin-3-yl]-2-pyridyl]carbamate], in the test with Pythium ultimum, the inhibition at 20 ppm was no less than 80%. Further, the pest or weed control at 200 ppm in the test on Phytophthora infestans and in the test on Plasmopara viticola was no less than 80% in each case.
Consider `COC(=O)Nc1ccc(-c2cnc3ccc(N(C)C(=O)c4ccc(F)c(OC)c4)cn23)cn1` [Compound 26, methyl N-[5-[6-[(4-fluoro-3-methoxy-benzoyl)-methyl-amino]imidazo[1,2-a]pyridin-3-yl]-2-pyridyl]carbamate], for which, in the test on Pythium ultimum, the inhibition at 20 ppm is no less than 80%. Besides, the pest or weed control at 200 ppm with Phytophthora infestans and with Plasmopara viticola was no less than 80% each time.
For `COCN(C(=O)c1ccc(F)cc1)c1ccc2ncc(-c3ccc(NC(=O)OC)nc3)n2c1` [Compound 24, methyl N-[5-[6-[(4-fluorobenzoyl)-(methoxymethyl)amino]imidazo[1,2-a]pyridin-3-yl]-2-pyridyl]carbamate], the inhibition at 20 ppm in the test with Pythium ultimum was no less than 80%. Moreover, in the test on Phytophthora infestans, the pest or weed control at 200 ppm was no less than 80%.
In the case of `COC(=O)Nc1ccc(-c2cnc3c(Br)cc(N(C)C(=O)c4ccc(F)c(OC)c4)cn23)cn1` [Compound 60, methyl N-[5-[8-bromo-6-[(4-fluoro-3-methoxy-benzoyl)-methyl-amino]imidazo[1,2-a]pyridin-3-yl]-2-pyridyl]carbamate], the inhibition at 20 ppm with Pythium ultimum was no less than 80%. In addition, the pest or weed control at 200 ppm in the test on Phytophthora infestans and in the test on Plasmopara viticola was no less than 80% each time.
`COC(=O)Nc1ccc(-c2cnc3c(C#N)cc(N(C)C(=O)c4ccc(F)c(OC)c4)cn23)cn1` [Compound 55, methyl N-[5-[8-cyano-6-[(4-fluoro-3-methoxy-benzoyl)-methyl-amino]imidazo[1,2-a]pyridin-3-yl]-2-pyridyl]carbamate]: in the test on Pythium ultimum, the inhibition at 20 ppm is no less than 80%. Moreover, the pest or weed control at 200 ppm with Phytophthora infestans and in the test with Plasmopara viticola was no less than 80% each time.
`CCOc1cc(C(=O)N(C)c2cc(C)c3ncc(-c4ccc(NC(=O)OC)nc4)n3c2)ccc1C#N` [Compound 10, methyl N-[5-[6-[(4-cyano-3-ethoxy-benzoyl)-methyl-amino]-8-methyl-imidazo[1,2-a]pyridin-3-yl]-2-pyridyl]carbamate]: the inhibition at 20 ppm with Pythium ultimum was no less than 80%. Moreover, the pest or weed control at 200 ppm in the test on Phytophthora infestans and in the test with Plasmopara viticola was no less than 80% throughout.
For `COC(=O)Nc1ccc(-c2cnc3c(NC(C)=O)cc(N(C)C(=O)c4ccc(F)c(OC)c4)cn23)cn1` [Compound 59, methyl N-[5-[8-acetamido-6-[(4-fluoro-3-methoxy-benzoyl)-methyl-amino]imidazo[1,2-a]pyridin-3-yl]-2-pyridyl]carbamate], in the test on Pythium ultimum, the inhibition at 20 ppm was no less than 80%. The pest or weed control at 200 ppm in the test with Phytophthora infestans was no less than 80%.
On to `CCc1cc(N(C)C(=O)c2ccc(F)c(OC)c2)cn2c(-c3ccc(NC(=O)OC)nc3)cnc12` [Compound 57, methyl N-[5-[8-ethyl-6-[(4-fluoro-3-methoxy-benzoyl)-methyl-amino]imidazo[1,2-a]pyridin-3-yl]-2-pyridyl]carbamate], for which the inhibition at 20 ppm in the test with Pythium ultimum is no less than 80%. In addition, the pest or weed control at 200 ppm in the test on Phytophthora infestans and in the test on Plasmopara viticola was no less than 80% throughout.
Consider `COC(=O)Nc1ccc(-c2cnc3c(C)cc(N(C)C(=O)c4ccc(C#N)cc4)cn23)cn1` [Compound 47, methyl N-[5-[6-[(4-cyanobenzoyl)-methyl-amino]-8-methyl-imidazo[1,2-a]pyridin-3-yl]-2-pyridyl]carbamate], for which, in the test with Pythium ultimum, the inhibition at 20 ppm is no less than 80%. The pest or weed control at 200 ppm in the test on Phytophthora infestans and in the test on Plasmopara viticola was no less than 80% each time.
For the molecule `COC(=O)Nc1ccc(-c2cnc3c(C4CC4)cc(N(C)C(=O)c4ccc(F)c(OC)c4)cn23)cn1` [Compound 56, methyl N-[5-[8-cyclopropyl-6-[(4-fluoro-3-methoxy-benzoyl)-methyl-amino]imidazo[1,2-a]pyridin-3-yl]-2-pyridyl]carbamate], in the test on Pythium ultimum, the inhibition at 20 ppm was no less than 80%. Also, the pest or weed control at 200 ppm in the test with Phytophthora infestans and in the test with Plasmopara viticola was no less than 80% each time.
For `COC(=O)Nc1ccc(-c2cnc3ccc(N(C)C(=O)c4ccc(F)c(F)c4)cn23)cn1` [Compound 22, methyl N-[5-[6-[(3,4-difluorobenzoyl)-methyl-amino]imidazo[1,2-a]pyridin-3-yl]-2-pyridyl]carbamate], the inhibition at 20 ppm in the test on Pythium ultimum is no less than 80%. Also, the pest or weed control at 200 ppm in the test with Phytophthora infestans was no less than 80%.
Regarding `COC(=O)Nc1ccc(-c2cnc3c(C)cc(N(C)C(=O)c4ccc(Cl)c(OC)c4)cn23)cn1` [Compound 1, methyl N-[5-[6-[(4-chloro-3-methoxy-benzoyl)-methyl-amino]-8-methyl-imidazo[1,2-a]pyridin-3-yl]-2-pyridyl]carbamate], the inhibition at 20 ppm in the test on Pythium ultimum is no less than 80%. The pest or weed control at 200 ppm with Phytophthora infestans and in the test with Plasmopara viticola was no less than 80% throughout.
Take `COC(=O)Nc1ccc(-c2cnc3c(C)cc(N(C)C(=O)c4ccnc(OC)c4)cn23)cn1` [Compound 3, methyl N-[5-[6-[(2-methoxypyridine-4-carbonyl)-methyl-amino]-8-methyl-imidazo[1,2-a]pyridin-3-yl]-2-pyridyl]carbamate]: the inhibition at 20 ppm in the test on Pythium ultimum is no less than 80%. Also, the pest or weed control at 200 ppm in the test with Phytophthora infestans is no less than 80%.
For the molecule `COC(=O)Nc1ccc(-c2cnc3ccc(N(C)C(=O)c4ccc(Cl)cc4)cn23)cc1` [Compound 27, methyl N-[4-[6-[(4-chlorobenzoyl)-methyl-amino]imidazo[1,2-a]pyridin-3-yl]phenyl]carbamate], the inhibition at 20 ppm with Pythium ultimum was no less than 80%. The pest or weed control at 200 ppm with Plasmopara viticola was no less than 80%.
On to `COC(=O)Nc1ccc(-c2cnc3c(C)cc(N(C)C(=O)c4ccc(Cl)c(C)c4)cn23)cn1` [Compound 41, methyl N-[5-[6-[(4-chloro-3-methyl-benzoyl)-methyl-amino]-8-methyl-imidazo[1,2-a]pyridin-3-yl]-2-pyridyl]carbamate], for which the inhibition at 20 ppm with Pythium ultimum is no less than 80%. Moreover, the pest or weed control at 200 ppm with Phytophthora infestans and in the test on Plasmopara viticola was no less than 80% each time.
Turning to `COC(=O)Nc1ccc(-c2cnc3c(C)cc(N(C)C(=O)c4ccc(Cl)cc4)cn23)cn1` [Compound 49, methyl N-[5-[6-[(4-chlorobenzoyl)-methyl-amino]-8-methyl-imidazo[1,2-a]pyridin-3-yl]-2-pyridyl]carbamate], the inhibition at 20 ppm in the test on Pythium ultimum is no less than 80%. Besides, the pest or weed control at 200 ppm in the test on Phytophthora infestans and in the test on Plasmopara viticola was no less than 80% each time.
In the case of `C=CCCc1cc(N(C)C(=O)c2ccc(F)c(OC)c2)cn2c(-c3ccc(NC(=O)OC)nc3)cnc12` [Compound 58, methyl N-[5-[8-but-3-enyl-6-[(4-fluoro-3-methoxy-benzoyl)-methyl-amino]imidazo[1,2-a]pyridin-3-yl]-2-pyridyl]carbamate], in the test with Pythium ultimum, the inhibition at 20 ppm is no less than 80%. The pest or weed control at 200 ppm in the test on Phytophthora infestans and with Plasmopara viticola was no less than 80% throughout.
Turning to `CCOc1cc(C(=O)N(C)c2ccc3ncc(-c4ccc(NC(=O)OC)nc4)n3c2)ccc1F` [Compound 23, methyl N-[5-[6-[(3-ethoxy-4-fluoro-benzoyl)-methyl-amino]imidazo[1,2-a]pyridin-3-yl]-2-pyridyl]carbamate], the inhibition at 20 ppm in the test with Pythium ultimum is no less than 80%. Also, in the test with Phytophthora infestans, the pest or weed control at 200 ppm is no less than 80%.
With `COC(=O)Nc1ccc(-c2cnc3c(C)cc(N(C)C(=O)c4ccc(C#N)c(OC)c4)cn23)cn1` [Compound 5, methyl N-[5-[6-[(4-cyano-3-methoxy-benzoyl)-methyl-amino]-8-methyl-imidazo[1,2-a]pyridin-3-yl]-2-pyridyl]carbamate], the inhibition at 20 ppm with Pythium ultimum is no less than 80%. The pest or weed control at 200 ppm in the test with Phytophthora infestans and in the test with Plasmopara viticola was no less than 80% each time.
As for `COC(=O)Nc1ccc(-c2cnc3c(C)cc(N(C)C(=O)c4ccc(F)cc4F)cn23)cn1` [Compound 54, methyl N-[5-[6-[(2,4-difluorobenzoyl)-methyl-amino]-8-methyl-imidazo[1,2-a]pyridin-3-yl]-2-pyridyl]carbamate], the inhibition at 20 ppm in the test with Pythium ultimum is no less than 80%. For the same molecule, the pest or weed control at 200 ppm in the test on Phytophthora infestans and with Plasmopara viticola was no less than 80% in each case.
For the molecule `COC(=O)Nc1ccc(-c2cnc3c(C)cc(N(C)C(=O)c4ccc(F)c(F)c4)cn23)cn1` [Compound 12, methyl N-[5-[6-[(3,4-difluorobenzoyl)-methyl-amino]-8-methyl-imidazo[1,2-a]pyridin-3-yl]-2-pyridyl]carbamate], the inhibition at 20 ppm in the test with Pythium ultimum is no less than 80%. Besides, the pest or weed control at 200 ppm in the test on Phytophthora infestans and in the test with Plasmopara viticola was no less than 80% throughout.
For `COC(=O)Nc1ccc(-c2cnc3ccc(N(C)C(=O)c4ccc(F)c(C)c4)cn23)cn1` [Compound 21, methyl N-[5-[6-[(4-fluoro-3-methyl-benzoyl)-methyl-amino]imidazo[1,2-a]pyridin-3-yl]-2-pyridyl]carbamate], the inhibition at 20 ppm with Pythium ultimum was no less than 80%. The pest or weed control at 200 ppm with Phytophthora infestans is no less than 80%.
With `CCOc1cc(C(=O)N(C)c2cc(C)c3ncc(-c4ccc(NC(=O)OC)nc4)n3c2)ccc1F` [Compound 19, methyl N-[5-[6-[(3-ethoxy-4-fluoro-benzoyl)-methyl-amino]-8-methyl-imidazo[1,2-a]pyridin-3-yl]-2-pyridyl]carbamate], in the test with Pythium ultimum, the inhibition at 20 ppm was no less than 80%. In addition, in the test with Phytophthora infestans, the pest or weed control at 200 ppm was no less than 80%.
`COC(=O)Nc1ccc(-c2cnc3ccc(N(CCC#N)C(=O)c4ccc(F)c(OC)c4)cn23)cn1` [Compound 62, methyl N-[5-[6-[2-cyanoethyl-(4-fluoro-3-methoxy-benzoyl)amino]imidazo[1,2-a]pyridin-3-yl]-2-pyridyl]carbamate]: the inhibition at 20 ppm in the test with Pythium ultimum was no less than 80%. The pest or weed control at 200 ppm in the test with Phytophthora infestans is no less than 80%.
